# From PMC11323500, “Functional redundancy of ubiquitin-like sulfur-carrier proteins facilitates flexible, efficient sulfur utilization in the primordial archaeon Thermococcus kodakarensis” (mBio, 2024)
# Target: T1, TK2117 (with TK2118 / UblB) (Thermococcus kodakarensis, UniProt Q5JEX2)
# T1 construct: tag removal not mentioned; with Ubiquitin-like sulfur-carrier protein UblB (MoaD family)
# T1 sequence (Q5JEX2 1-232): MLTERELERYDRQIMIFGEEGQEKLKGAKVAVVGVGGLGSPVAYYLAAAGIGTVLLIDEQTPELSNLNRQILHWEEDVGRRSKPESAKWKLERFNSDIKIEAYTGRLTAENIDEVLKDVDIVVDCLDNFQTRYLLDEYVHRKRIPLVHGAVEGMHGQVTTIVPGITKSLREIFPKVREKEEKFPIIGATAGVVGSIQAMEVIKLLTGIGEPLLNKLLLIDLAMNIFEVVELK
# T1 sequence (Q5JEX1 1-88 partner): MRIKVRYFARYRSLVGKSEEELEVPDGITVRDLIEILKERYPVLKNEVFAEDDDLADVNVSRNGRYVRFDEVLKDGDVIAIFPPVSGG
# Test: pyrophosphate release measured as phosphate (Biomol Green, inorganic pyrophosphatase)
# Assay type: biochemical
# Conditions: 10 mM ATP; 5 mM MgCl2; 4.0 µM TK2117; 10.0 µM TK2118 as co-substrate; pH 8.0; 80 °C
smiles,measurement,value
Nc1ncnc2c1ncn2[C@@H]1O[C@H](COP(=O)(O)OP(=O)(O)OP(=O)(O)O)[C@@H](O)[C@H]1O [ATP],"pyrophosphate release measured as phosphate (Biomol Green, inorganic pyrophospha)",TK2117 formed pyrophosphate in the presence of TK2118
